Experimental findings from patent US9023865B2, “Compounds that are ERK inhibitors” (Merck Sharp & Dohme Corp., priority 2011, dated 2015) are described below.

pIC50: −log10 of the molar value.

Sequence of Active Human ERK2 (hERK2) (P28482 whole entry): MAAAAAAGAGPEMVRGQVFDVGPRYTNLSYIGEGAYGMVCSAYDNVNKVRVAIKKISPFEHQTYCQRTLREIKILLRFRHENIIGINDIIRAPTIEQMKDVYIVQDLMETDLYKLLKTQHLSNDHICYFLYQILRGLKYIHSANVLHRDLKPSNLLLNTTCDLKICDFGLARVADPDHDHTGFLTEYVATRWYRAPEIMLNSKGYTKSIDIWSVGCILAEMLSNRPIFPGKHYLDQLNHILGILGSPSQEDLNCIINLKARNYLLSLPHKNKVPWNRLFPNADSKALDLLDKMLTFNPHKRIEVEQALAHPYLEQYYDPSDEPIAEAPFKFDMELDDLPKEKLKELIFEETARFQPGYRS

The test has as its target Active Human ERK2 (hERK2) (Homo sapiens (Human), UniProt P28482). Briefly: Active Human ERK2 (hERK2) Activity Assay (IMAP-FP). The format is biochemical. The following applies: phosphorylated active hERK2, 30 μM ATP; average; read-out: ERK 2 Human average IC50. The method in brief: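 Reaction contains 0.5 nM activated hERK2, 900 nM unlabeled plus 80 nM labeled peptide and 30 μM ATP, run 60 min. Quenched with IMAP binding beads in buffer with 24 mM NaCl; fluorescence polarization read after 60 min binding equilibration.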
As for `Cc1cc(-c2n[nH]c3cc(NC(=O)NCC4(c5ccc(F)cc5)CC4)ncc23)ccn1` [Example 269], the pIC50 is 8.55.
For the compound `Cc1cc(-c2n[nH]c3cc(NC(=O)N[C@@H]4CCc5ccc(F)cc54)ncc23)ccn1` [Example 270], the pIC50 was 8.43.
On to `Cc1cc(-c2n[nH]c3cc(NC(=O)NC4CC(C)(C)Oc5ccccc54)ncc23)ccn1` (centres unmarked) [Example 271], for which the pIC50 is 8.23.
As for `Cc1cc(-c2n[nH]c3cc(NC(=O)NCc4ccc(F)cc4)ncc23)ccn1` [Example 273], the negative-log IC50 (pIC50) was 9.02.
As to `Cc1cc(-c2n[nH]c3cc(NC(=O)NC4CCCOc5ccccc54)ncc23)ccn1` (centres unmarked) [Example 274], the pIC50 is 9.31.
Consider `Cc1cc(-c2n[nH]c3cc(NC(=O)N[C@@H]4CCS(=O)(=O)c5ccccc54)ncc23)ccn1` [Example 275], for which the pIC50 is 8.79.
Turning to `Cc1cc(-c2n[nH]c3cc(NC(=O)N[C@H]4CCOc5cc(F)ccc54)ncc23)ccn1` [Example 276, 1-[(4S)-7-fluoro-3,4-dihydro-2H-chromen-4-yl]-3-[3-(2-methylpyridin-4-yl)-1H-pyrazolo[4,3-c]pyridin-6-yl]urea], the negative logarithm of the IC50 (pIC50) is 7.83.
Turning to `Cc1cc(-c2n[nH]c3cc(NC(=O)NC4CCN(S(C)(=O)=O)c5ccccc54)ncc23)ccn1` (centres unmarked) [Example 277], the negative logarithm of the IC50 (pIC50) is 8.87.
For `Cc1cc(-c2n[nH]c3cc(NC(=O)N4CC(c5cccc(F)c5)C4)ncc23)ccn1` [Example 278], the negative logarithm of the IC50 (pIC50) is 7.36.
In the case of `Cc1cc(-c2n[nH]c3cc(NC(=O)N[C@H](c4ccc(F)cc4)C(F)(F)F)ncc23)ccn1` [Example 279], the pIC50 was 6.95.
As for `Cc1cc(-c2n[nH]c3cc(NC(=O)N[C@@H](c4ccc(F)cc4)C(F)(F)F)ncc23)ccn1` [Example 280], the negative logarithm of the IC50 (pIC50) is 8.01.
For the compound `C[C@@H](NC(=O)Nc1cc2[nH]nc(-c3ccnc(N4CCOCC4)c3)c2cn1)c1ccc(F)cc1` [Example 281], the pIC50 was 8.72.
As for `C[C@@H](NC(=O)Nc1cc2[nH]nc(-c3ccc(=O)[nH]c3)c2cn1)c1ccc(F)cc1` [Example 282], the pIC50 is 9.52.
Consider `Cc1cc(-c2n[nH]c3cc(NC(=O)NC4CCc5cc(Cl)ccc54)ncc23)ccn1` (centres unmarked) [Example 283], for which the pIC50 is 7.07.
With `Cc1cc(-c2n[nH]c3cc(NC(=O)N[C@H]4CCCOc5ccccc54)ncc23)ccn1` [Example 284], the negative logarithm of the IC50 (pIC50) was 8.08.
For the compound `Cc1cc(-c2n[nH]c3cc(NC(=O)N[C@@H]4CCCOc5ccccc54)ncc23)ccn1` [Example 285], the pIC50 is 9.42.
Regarding `Cc1cc(-c2n[nH]c3cc(NC(=O)NC4CCOc5cc(F)ccc54)ncc23)ccn1` (centres unmarked) [Example 286], the negative-log IC50 (pIC50) is 8.02.
Under `Cc1cc(-c2n[nH]c3cc(NC(=O)N4CCN(c5ccc(F)cc5)C[C@H]4C)ncc23)ccn1` [Example 288] stands 5.64; under `COCCn1cc(-c2n[nH]c3cc(NC(=O)N[C@H](C)c4ccccc4)ncc23)cn1` [Example 289], 7.55; under `C[C@@H](NC(=O)Nc1cc2[nH]nc(-c3cnc(O)nc3)c2cn1)c1ccccc1` [Example 290], 9.44.
As to `C[C@@H](NC(=O)Nc1cc2[nH]nc(-c3cnc(-n4cccn4)nc3)c2cn1)c1ccccc1` [Example 291], the pIC50 was 8.35.
With `C[C@@H](NC(=O)Nc1cc2[nH]nc(-c3cnc(N(C)S(C)(=O)=O)nc3)c2cn1)c1ccccc1` [Example 292], the negative-log IC50 (pIC50) is 8.44.
With `COCCN(C)c1ncc(-c2n[nH]c3cc(NC(=O)N[C@H](C)c4ccccc4)ncc23)cn1` [Example 293], the negative-log IC50 (pIC50) is 7.61.
Consider `C[C@@H](NC(=O)Nc1cc2[nH]nc(-c3ccn4ncnc4c3)c2cn1)c1ccccc1` [Example 294], for which the pIC50 was 9.18.
As to `O=C(Nc1cc2[nH]nc(C3CC3)c2cn1)N[C@@H]1CCCOc2ccccc21` [Example 295], the negative logarithm of the IC50 (pIC50) was 8.57.
Then `COC[C@@H](NC(=O)Nc1cc2[nH]nc(-c3ccc(N4CCOCC4)nc3)c2cn1)c1ccc(F)cc1` [Example 297], with 8.98.
For `COC[C@@H](NC(=O)Nc1cc2[nH]nc(-c3ccnc(N4CCOCC4)c3)c2cn1)c1ccc(F)cc1` [Example 298], the negative logarithm of the IC50 (pIC50) was 8.93.
Consider `COC[C@@H](NC(=O)Nc1cc2[nH]nc(-c3ccn4ncnc4c3)c2cn1)c1ccc(F)cc1` [Example 300], for which the pIC50 was 8.87.
As to `COC[C@@H](NC(=O)Nc1cc2[nH]nc(-c3ccc4c(c3)nnn4C)c2cn1)c1ccc(F)cc1` [Example 301], the negative-log IC50 (pIC50) is 9.25.
For `COC[C@@H](NC(=O)Nc1cc2[nH]nc(-c3ccc(C#N)nc3)c2cn1)c1ccc(F)cc1` [Example 303], the pIC50 is 8.49.
As for `COC[C@@H](NC(=O)Nc1cc2[nH]nc(-c3ccnc(C#N)c3)c2cn1)c1ccc(F)cc1` [Example 304], the pIC50 was 8.76.
Then `COC[C@@H](NC(=O)Nc1cc2[nH]nc(-c3ccc(C(F)(F)F)nc3)c2cn1)c1ccc(F)cc1` [Example 305], with 7.61; and `COC[C@@H](NC(=O)Nc1cc2[nH]nc(-c3ccnc(N4CCNCC4)c3)c2cn1)c1ccc(F)cc1` [Example 306], with 9.09; and `COC[C@@H](NC(=O)Nc1cc2[nH]nc(-c3ccc(-n4ccnn4)cc3)c2cn1)c1ccc(F)cc1` [Example 307], with 8.76.
For the compound `Cc1cncc(-c2n[nH]c3cc(NC(=O)N[C@H](C)c4ccc(F)cc4)ncc23)c1` [Example 308], the pIC50 is 8.75.
As for `CC(C)CN(C)c1ncc(-c2n[nH]c3cc(NC(=O)N[C@H](C)c4ccc(F)cc4)ncc23)cn1` [Example 309], the pIC50 is 7.35.
Turning to `COc1cc(-c2n[nH]c3cc(NC(=O)N[C@H](C)c4ccc(F)cc4)ncc23)ccn1` [Example 310], the pIC50 was 8.19.
Under `CCS(=O)(=O)c1ccc(-c2n[nH]c3cc(NC(=O)N[C@H](C)c4ccc(F)cc4)ncc23)cn1` [Example 311] stands 7.58; under `COc1ncc(-c2n[nH]c3cc(NC(=O)N[C@@H]4CCCOc5ccccc54)ncc23)cn1` [Example 312], 9.12.
Under `COc1ncc(-c2n[nH]c3cc(NC(=O)N[C@H](C)c4ccccc4)ncc23)cn1` [Example 313] stands 9.14; under `COC[C@@H](NC(=O)Nc1cc2[nH]nc(-c3cnc(OC)nc3)c2cn1)c1ccccc1` [Example 314], 9.06; under `Cc1cc(-c2n[nH]c3cc(NC(=O)NCc4cccc(C)n4)ncc23)ccn1` [Example 315], 8.71.
Regarding `CN1CC[C@@H](NC(=O)Nc2cc3[nH]nc(-c4ccc(F)cc4)c3cn2)C1` [Example 316], the negative logarithm of the IC50 (pIC50) was 8.73.
Turning to `CO[C@H]1CN(C)C[C@@H]1NC(=O)Nc1cc2[nH]nc(-c3ccc(F)cc3)c2cn1` [Example 317], the negative logarithm of the IC50 (pIC50) is 8.95.
As to `CO[C@@H]1CN(C)C[C@H]1NC(=O)Nc1cc2[nH]nc(-c3ccc(F)cc3)c2cn1` [Example 318], the negative logarithm of the IC50 (pIC50) was 7.52.
For `CCO[C@H]1CN(C)C[C@@H]1NC(=O)Nc1cc2[nH]nc(-c3ccc(F)cc3)c2cn1` [Example 319], the pIC50 is 9.28.
Regarding `CCO[C@@H]1CN(C)C[C@H]1NC(=O)Nc1cc2[nH]nc(-c3ccc(F)cc3)c2cn1` [Example 320], the negative-log IC50 (pIC50) is 7.59.
With `CN1CC[C@@H](CNC(=O)Nc2cc3[nH]nc(-c4ccc(F)cc4)c3cn2)C1` [Example 321], the pIC50 was 9.01.
As for `CN1CC[C@H](CNC(=O)Nc2cc3[nH]nc(-c4ccc(F)cc4)c3cn2)C1` [Example 322], the pIC50 was 8.93.
Under `Cc1cc(-c2n[nH]c3cc(NC(=O)N[C@@H]4CNC[C@H]4F)ncc23)ccn1` [Example 325] stands 8.40; under `Cc1cc(-c2n[nH]c3cc(NC(=O)N[C@@H]4CCN(CC(F)(F)F)C4)ncc23)ccn1` [Example 326], 8.45.
In the case of `Cc1cc(-c2n[nH]c3cc(NC(=O)N[C@H]4CCN(CC(F)(F)F)C4)ncc23)ccn1` [Example 327], the pIC50 is 9.35.
Under `Cc1cc(-c2n[nH]c3cc(NC(=O)N[C@H]4CN(C)C[C@@H]4F)ncc23)ccn1` [Example 328, 1-((3S,4S)-4-fluoro-1-methylpyrrolidin-3-yl)-3-(3-(2-methylpyridin-4-yl)-1H-pyrazolo[4,3-c]pyridin-6-yl)urea] stands 8.80; under `Cc1cc(-c2n[nH]c3cc(NC(=O)N[C@@H]4CN(C)C[C@H]4F)ncc23)ccn1` [Example 329, 1-((3R,4R)-4-fluoro-1-methylpyrrolidin-3-yl)-3-(3-(2-methylpyridin-4-yl)-1H-pyrazolo[4,3-c]pyridin-6-yl)urea], 7.25.
Turning to `Cc1cc(-c2n[nH]c3cc(NC(=O)N[C@@H]4CN(CC(F)(F)F)C[C@H]4c4ccccc4)ncc23)ccn1` [Example 330], the pIC50 is 8.51.
Under `Cc1cc(-c2n[nH]c3cc(NC(=O)N[C@@H](CN)c4ccccc4)ncc23)ccn1` [Example 331] stands 7.54; under `Cc1cc(-c2n[nH]c3cc(NC(=O)NC4c5ccccc5CC4O)ncc23)ccn1` (centres unmarked) [Example 332], 8.87.
As for `Cc1cc(-c2n[nH]c3cc(NC(=O)NCc4cccc(-c5ccccc5)c4)ncc23)ccn1` [Example 333], the pIC50 was 8.47.
`Cc1cc(-c2n[nH]c3cc(NC(=O)NC(CCO)c4ccccc4)ncc23)ccn1` (centres unmarked) [Example 334]: the negative-log IC50 (pIC50) is 9.48.
Take `Cc1cc(-c2n[nH]c3cc(NC(=O)NC(CO)c4cccnc4)ncc23)ccn1` (centres unmarked) [Example 336]: the pIC50 is 8.99.
As to `Cc1cc(-c2n[nH]c3cc(NC(=O)Nc4noc5ccccc45)ncc23)ccn1` [Example 337], the pIC50 is 8.85.
Take `Cc1cc(-c2n[nH]c3cc(NC(=O)NC(C)c4ccc(F)c(F)c4)ncc23)ccn1` (centres unmarked) [Example 338]: the negative logarithm of the IC50 (pIC50) is 9.00.
Turning to `Cc1ccc(C(C)NC(=O)Nc2cc3[nH]nc(-c4ccnc(C)c4)c3cn2)nc1` (centres unmarked) [Example 339], the pIC50 is 8.22.
For `Cc1cc(-c2n[nH]c3cc(NC(=O)N[C@@H](C)c4ccc(Cl)c(C)c4)ncc23)ccn1` [Example 340], the pIC50 was 6.14.
Then `Cc1cc(-c2n[nH]c3cc(NC(=O)N[C@H](C)c4ccc(Cl)c(C)c4)ncc23)ccn1` [Example 341], with 8.54.

Usually pIC50 stands for the negative decadic logarithm of the IC50, by convention in mol/L.
